Data on eight molecules can be found in article PMC4534154 (Food Science & Nutrition, 2015).

Entries after “also recorded” stand apart in the source; their conditions may differ. Where a SMILES comes first, the peptide text is derived from it.

Data set [1] addresses T1, trypsin (Bos taurus, UniProt P00760).
T1 construct: purchased Sigma; host or cells: bovine pancreas (tissue-derived)
T1 sequence (P00760 24-246): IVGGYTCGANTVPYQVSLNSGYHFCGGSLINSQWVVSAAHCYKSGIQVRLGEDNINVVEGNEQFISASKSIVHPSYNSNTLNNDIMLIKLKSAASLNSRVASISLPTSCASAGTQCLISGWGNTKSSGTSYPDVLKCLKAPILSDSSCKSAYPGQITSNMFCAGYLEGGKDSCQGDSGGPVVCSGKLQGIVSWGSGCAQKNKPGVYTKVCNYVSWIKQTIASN
The experiment in a line: Simulated intestinal fluid (SIF, trypsin only) digestion of Ara h 1 peptides. In kind it is in vitro ADME, bovine. To be noted: SIF containing only trypsin, 200 μg peptide in 1 mL, 37°C, samples at 1, 2, 4, 16 h, LC-MS peak integration; for SIF (trypsin) cleavage, formation of 1073.55 amu cleavage ion, in words: Fig. 2D; for peptide cleaved at the K287 site in SIF (formation of 2227.05 amu ion as percentage of sum of parental and fragment ions): Fig. 2C. An excerpt:
Pepsin from porcine gastric mucosa and trypsin from bovine pancreas were purchased from Sigma. Sequencing grade-modified trypsin was purchased from Promega. Water was obtained using a Synergy Ultrapure water system (Millipore). Modified and unmodified Ara h 1 peptides were synthesized (at least 95% pure) and purchased from New England Peptide. Serum samples from five peanut allergic patients were purchased from PlasmaLab International (Everett, WA).
Simulated gastric fluid (SGF) containing pepsin and simulated intestinal fluid (SIF) containing trypsin were used as described previously (Mattison et al. [2014b]). Synthetic peptides were resuspended in water just prior to use at a concentration of 1 mg/mL. Peptides (200 μg) were digested with SGF or SIF in 1 mL reaction volume for 1, 2, 4, or 16 h at 37°C. Samples (100 μL) were removed at the indicated time points, 5% formic acid was added, and samples were frozen at −80°C prior to analysis by mass spectrometry.
Analysis of trypsin/pepsin digestions: trypsin or pepsin digested Ara h 1 peptides were analyzed via liquid chromatography with tandem mass spectrometry (LC/MS/MS), using an Agilent 1200 LC system, an Agilent Chip Cube interface, and an Agilent 6520 Q-TOF tandem mass spectrometer (Agilent Technologies, Santa Clara, CA) as described in Mattison et al. (Mattison et al. [2014a]). One microliter sample aliquots were transferred to an enrichment column via capillary pump operating at a flow of 4 μL/min. The Nano pump was operated at a flow rate of 600 nL/min. An initial gradient (Solvent A-100% H2O, 0.1% Formic Acid; Solvent B- 90% ACN, 10% H2O and 0.1% Formic Acid) of 97% A was changed to 10% […] at 2 min, 70% at 15 min, 100% at 20 min, and back to 97% at 25 min. A postrun time of 5 min was employed for column equilibration. An initial MS scan was performed from m/z 300 to 1600 and up to six multiply charged ions were selected for MS/MS analysis. The raw MS/MS data files were extracted, sequenced, and searched against a custom database containing the Ara h 1 sequence using Spectrum Mill software (Agilent Technologies, Santa Clara, CA). For relative quantification, samples were run in MS-only mode and chromatographic peak areas were integrated into selected ions representative of the peptide cleavage products, resulting from the protease digest.
We evaluated the digestion of the modified and unmodified peptides using SIF containing only trypsin to mimic intestinal digestion conditions. […] To quantify the results, we integrated the relative peak areas of the 2227.05 and 1073.55 amu ions and undigested parental ions, and plotted the generation of the peptide cleavage products as a percentage of the sum of the parental and fragment ion values over time (Fig.2C and D). […]

Data set [2] concerns Pepsin from porcine gastric mucosa. The experiment in a line: Simulated gastric fluid (SGF) containing pepsin. The following applies: 37°C, up to 16 h.
In data set [3] the test system is trypsin from bovine pancreas. Description: simulated intestinal fluid (SIF) containing trypsin. To be noted: 37°C, up to 16 h.

`CC[C@H](C)[C@H](N)C(=O)N[C@@H](Cc1ccccc1)C(=O)N[C@@H](CC(C)C)C(=O)N[C@@H](C)C(=O)NCC(=O)N[C@@H](CC(=O)O)C(=O)N[C@@H](CCCCNCC(=O)O)C(=O)N[C@@H](CC(=O)O)C(=O)N[C@@H](CC(N)=O)C(=O)N[C@H](C(=O)N[C@H](C(=O)N[C@@H](CC(=O)O)C(=O)N[C@@H](CCC(N)=O)C(=O)N[C@H](C(=O)N[C@@H](CCC(=O)O)C(=O)N[C@@H](CCCCN)C(=O)O)[C@@H](C)CC)[C@@H](C)CC)C(C)C` [IFLAG-CML]: the “SIF (trypsin) cleavage, formation of 1073.55 amu cleavage ion, in words” value in data set [1] is “prevented trypsin cleavage”. With `CC[C@H](C)[C@H](N)C(=O)N[C@@H](Cc1ccccc1)C(=O)N[C@@H](CC(C)C)C(=O)N[C@@H](C)C(=O)NCC(=O)N[C@@H](CC(=O)O)C(=O)N[C@@H](CCCCN)C(=O)N[C@@H](CC(=O)O)C(=O)N[C@@H](CC(N)=O)C(=O)N[C@H](C(=O)N[C@H](C(=O)N[C@@H](CC(=O)O)C(=O)N[C@@H](CCC(N)=O)C(=O)N[C@H](C(=O)N[C@@H](CCC(=O)O)C(=O)N[C@@H](CCCCN)C(=O)O)[C@@H](C)CC)[C@@H](C)CC)C(C)C` [IFLAG] (H-IFLAGDKDNVIDQIEK-OH), the “SIF (trypsin) cleavage, formation of 1073.55 amu cleavage ion, in words” value in data set [1] is reported as “very limited SIF proteolysis”. Regarding VAK-CML-ISMPVNTPGQFEDFFPASSR, the fragment found entry in data set [2] is on record as “VAKISM, major; also recorded: VAKISMPVNTPGQF, major”. In data set [3], the not cleaved result is recorded as “less than 5% of the CML-modified VAK peptide was cleaved (16 h)”.

As for VAKISMPVNTPGQFEDFFPASSR, in data set [2], the fragment found entry is “VAKISMPVNTPGQF, major; also recorded: VAKISM, major”. Also, the cleaved bond result in data set [3] is on record as “K287-I288”. With IFLAGDK-CML-DNVIDQIEK, the fragment found result in data set [2] is given as “IFLAGDKDNVIDQ, major; also recorded: AGDKDNVIDQ, major; also recorded: IFLAGDKD, major”. Also, in data set [3], the not cleaved result is on record as “the CML modification prevented trypsin cleavage of the peptide”. With IFLAGDKDNVIDQIEK, the fragment found result in data set [2] is on record as “IFLAGDKDNVIDQ, major; also recorded: AGDKDNVIDQ, major; also recorded: IFLAGDKD, major”. In addition, the cleaved bond result in data set [3] was “K547-D548”. As to “VAKISMPVNTPGQFEDFFPASSR [VAK-CML, synthetic Ara h 1 peptide, residues 285–307, with CML modification at lysine 287 (K287)]”, the “peptide cleaved at the K287 site in SIF (formation of 2227.05 amu ion as percentage of sum of parental and fragment ions)” value in data set [1] (listed as CML-modified VAK) is listed as “less than 5%”. With “VAKISMPVNTPGQFEDFFPASSR [synthetic Ara h 1 peptide, residues 285–307, unmodified]”, in data set [1], the “peptide cleaved at the K287 site in SIF (formation of 2227.05 amu ion as percentage of sum of parental and fragment ions)” value was “about 50%”.
